Measurements taken from the NIST ThermoML archive (doi:10.1016/j.jct.2004.07.004).

Experiment: mn = molality of the nth substance listed, in mol/kg
Settings: 100 kPa, Liquid

CC(C)C[C@H](NC(=O)[C@@H]1CCCN1)C(=O)O [proline-leucine] + O
mass density [kg/m3]
Settings	283.15 K	288.15 K	293.15 K	298.15 K	303.15 K	308.15 K
m1 = 0.00191	–	–	998.299	–	–	994.122
m1 = 0.0025	–	999.209	998.324	997.166	–	994.156
m1 = 0.00255	–	–	–	–	995.771	–
m1 = 0.0035	999.851	999.261	998.368	997.215	–	994.198
m1 = 0.00399	–	999.283	998.394	–	–	–
m1 = 0.0045	999.901	999.303	998.416	997.251	995.856	994.246
m1 = 0.00505	999.956	999.356	998.452	–	–	994.278
m1 = 0.00549	–	999.353	998.462	997.3	995.925	994.294
m1 = 0.00602	1000	999.407	998.502	997.35	995.943	994.322
m1 = 0.00649	–	–	998.533	997.374	995.96	994.345
m1 = 0.00709	1000.06	999.445	998.552	997.381	–	–
m1 = 0.00748	–	999.48	998.581	997.416	995.999	994.392
m1 = 0.00776	1000.09	–	–	–	–	–
m1 = 0.00833	–	999.516	998.63	–	996.05	994.433
m1 = 0.00849	–	999.544	998.633	997.468	996.044	994.436
m1 = 0.00904	1000.16	999.542	998.644	–	–	–
m1 = 0.00949	–	999.594	998.69	997.521	996.091	–
m1 = 0.01004	–	999.608	998.704	997.541	996.128	994.51
m1 = 0.0105	1000.24	999.641	998.74	997.562	996.136	–
m1 = 0.01084	1000.25	999.633	–	997.57	–	994.545
m1 = 0.01148	1000.3	999.691	998.787	997.614	996.183	–
